Assays:
rDNA = assay: Quantitative PCR (QPCR) assay, rRNA inhibition (rDNA); format: cell-based; design: Selectivity: reference not given here; settings: for Selectivity: not defined in the patent; for IC50: rRNA inhibition from quantitative PCR assay
Description: In a specific assay embodiment, provided herein is a method for identifying a molecule that modulates ribosomal RNA (rRNA) synthesis, which comprises: contacting cells with a test molecule of Formula (I), (II), (III), (IV), (V), (VI), (VI′), (VII), or (VIII), contacting a ribosomal nucleotide sequence with one or more primers that amplify a portion thereof and a labeled probe that hybridizes to the amplification product, and detecting the amount of the amplification product by hybridization of the labeled probe, whereby a test molecule that reduces or increases the amount of amplification product is identified as a molecule that modulates rRNA synthesis. The labeled probe in some embodiments is added after the primers are added and the rRNA is amplified, and in certain embodiments, the labeled probe and the primers are added at the same time. The portion of ribosomal nucleotide sequence amplified sometimes is at the 5′ end of rDNA.
Real-time quantitative PCR (QPCR) method may be used to detect the changes of the target c-myc and the endogenous reference GAPDH gene copies in the same tube. Generally, cells (15,000 cells/well) are seeded on 96 well flat bottom plates (Corning, N.Y.) and incubated under normal growth conditions for overnight. The next day, the culture medium is exchanged for that containing anticancer drugs at various concentrations and incubated for 4 hrs in a humidified atmosphere of 5% CO2 at 37° C. Total RNA (tRNA) is extracted using the RNeasy 96 Kit (QIAGEN, CA). The concentration of the tRNA is determined by the RiboGreen RNA Quantitation Reagent (Molecular Probes, OR).
A reverse-transcription (RT) reaction may be conducted using 50 ng of tRNA from each well in a 25 μl reaction containing 1× TaqMan RT buffer, 2.5 uM random hexamers, 5.5 mM MgCl2, 0.5 mM each deoxynucleoside triphosphate (dNTP), 30 U MultiScribe Reverse Transcriptase, and 10 U RNase inhibitor. RT reactions are incubated for 10 min at 25° C., reverse-transcribed for 30 min at 48° C., inactivated for 5 min at 95° C., and placed at 4° C. All RT reagents may be purchased from Applied Biosystems, CA.
Real-Time QPCR reaction may be performed in a 50 μl reaction containing the 5 μl of cDNA, 1× Universal PCR Master Mix, 1× c-myc Pre-Developed Primers and Probe set, and 0.8×GAPDH Pre-Developed Primers and Probe set. Because of the relative abundance of GAPDH gene in Hela, GAPDH primers and probe concentration may be adjusted to get accurate threshold cycles (CT) for both genes in the same tube. The threshold cycle (CT) indicates the fractional cycle number at which the amount of amplified target reaches a fixed threshold. By doing so, the GAPDH amplification is stopped before it can limit the common reactants available for amplification of the c-myc. The ΔRn value represents the normalized reporter signal minus the baseline signal. ΔRn increases during PCR as amplicon copy number increases until the reaction approaches a plateau.
The c-myc probe is labeled with 6FAM™ dye-MGB and the GAPDH probe is labeled with VIC™ dye-MTB. Preincubation is performed for 2 min at 50° C. to activate AmpErase UNG enzyme and then for 10 min at 95° C. to activate AmpliTaq DNA Polymerase. DNA is amplified for 40 cycles of 15 sec at 95° C. and 1 min at 60° C. Human c-myc and GAPDH cDNA are amplified, detected, and quantitated in real time using the ABI Prism 7000 Sequence Detection system (Applied Biosystems, CA), which is set to detect both 6-FAM and VIC reporter dyes simultaneously.
The data may be analyzed using the ABI PRISM Sequence Detection System and Microsoft Excel. Relative quantitation is done using the standard curve and comparative CT method at the same time, and both methods gave equivalent results. The cycle at which the amplification plot crosses the CT is known to accurately reflect relative mRNA values. (See, Heid, et al., Genome Res. (1996) 6:986-994; Gibson, et al., Genome Res. (1996) 6:995-1001). […]

[1] = tested on: HCT-116 human colorectal carcinoma cells; assay: Alamar Blue (AB) cell proliferation assay, HCT-116; format: cell-based; settings: 96 h, Alamar Blue cell proliferation inhibition, HCT-116, four days
Protocol: A representative cell-proliferation assay protocol using Alamar Blue dye (stored at 4° C., use 20 ul per well) is described hereafter.
96-Well Plate Setup and Compound Treatment
a. Split and trypsinize cells.
b. Count cells using hemocytometer.
c. Plate 4,000-5,000 cells per well in 100 μl of medium and seed into a 96-well plate according to the following plate layout. Add cell culture medium only to wells B10 to B12. Wells B1 to B9 have cells but no compound added.
d. Add 100 μl of 2× drug dilution to each well in a concentration shown in the plate layout above. At the same time, add 100 μl of media into the control wells (wells B10 to B12). Total volume is 200 μl/well.
e. Incubate four (4) days at 37° C., 5% CO2 in a humidified incubator.
f. Add 20 μl Alamar Blue reagent to each well.
g. Incubate for four (4) hours at 37° C., 5% CO2 in a humidified incubator.
h. Record fluorescence at an excitation wavelength of 544 nm and emission wavelength of 590 nm using a microplate reader.
In the assays, cells are cultured with a test compound for approximately four days, the dye then is added to the cells and fluorescence of […] dye is detected after approximately four hours. Different types of cells can be utilized in the assays (e.g., HCT-116 human colorectal carcinoma cells, PC-3 human prostatic cancer cells and MiaPaca human pancreatic carcinoma cells). Anti-proliferative effects of representative compounds are provided hereafter.
Representative cassette dosing and bioavailability data are given in Table 8, along with cell proliferation inhibition (from Alamar Blue (AB) assay (e.g., Example 45 herein) and rRNA inhibition (from quantitative PCR (QPCR) assay (e.g., Example 46 herein).

Row | SMILES | Selectivity (rDNA) | IC50 (rDNA) [µM] | IC50 [1] [µM]
1 | O=C(NCCNCCF)c1c(=O)c2cc(F)c(N3CCOCC3)nc2n2c1sc1ccccc12 | 70 | 0.147 | 0.484
2 | Cn1ccnc1CNC(=O)c1c(=O)c2cc(N3CCOCC3)nnc2n2c1sc1ccccc12 | 53 | 0.334 | 0.174
3 | O=C(NCCNCC(F)(F)F)c1c(=O)c2ccc(N3CCOCC3)nc2n2c1sc1ccccc12 | 15 | 0.502 | 0.535
4 | O=C(NNC1=NCCN1)c1c(=O)c2cc(F)c(N3CCOCC3)nc2n2c1sc1ccccc12 | 893 | 0.028 | 0.001
5 | CN1CCN(c2ccc3c(=O)c(C(=O)NCc4ccccn4)c4sc5ccccc5n4c3n2)CC1 | 111 | 0.112 | 0.147

Source: patent US8853234B2, “Quinolone analogs and methods related thereto” (Senhwa Biosciences, Inc., priority 2007, dated 2014)
